Test system: Ai14 mice
Assay: Normalized delivery and fold enrichment from DNA barcode sequencing of tdTomato+ cells
Format: in vivo
Conditions: by LNP component; pool of 65 LNPs
Method: Following characterization of the pool of 65 Pi-LNPs, the LNPs were injected into Ai14 mice at a total nucleic dose of 1.5 mg/kg (averaging a 0.023 mg total nucleic acid/kg/particle, for all 65 Pi-LNPs) (FIG. 2A). The Ai14 mice have a Lox-Stop-Lox-tdTomato construct downstream of a CAG promoter. Thus, if Cre mRNA is delivered into a target cell and is subsequently functionally translated into Cre protein, the cells become tdTomato+ (FIG. 2A). By isolating tdTomato+ cells using fluorescence-activated cell sorting (FACS, FIG. 4, FIG. 5) and sequencing the cells using next-generation sequencing, it was possible to isolate the DNA barcodes, associated with specific LNPs, within cells that were functionally transfected with Cre mRNA 26, 36-38 Three days after injection, liver, spleen, lung, and kidney were isolated and quantified the percentage of tdTomato+ cells from 14 different cell populations (FIG. 2B). […] The percentage of tdTomato+ quantified in liver endothelial cells and dendritic cells was <5%, and no delivery in lung and kidney was observed. […] From the barcode raw counts obtained through sequencing, the normalized delivery of each individual barcode was calculated. Briefly, the normalized delivery of a given barcode was calculated as the number of counts for that barcode divided by the counts for all N barcodes (Tables 1-3, below). […]

CC(C)CCC[C@@H](C)[C@H]1CC[C@H]2[C@@H]3CC=C4C[C@@H](O)CC[C@]4(C)[C@H]3CC[C@]12C [cholesterol]
fold enrichment (odds of being in top or bottom 10% of LNPs): outperformed 20α-OH cholesterol
